How the values were obtained:
[1] = Iron-bound or unbound form detected by mass spectrometry; type: physicochemical; settings: mass spectrometry: [M+Fe−2H]+ at m/z 923.5 or proton adduct at m/z 838.6
From the text: The newly discovered antigens share some structural homology to mycobactin siderophores but lack two hydroxyl groups present in mycobactins, which confer upon mycobactins their ability to bind iron.

[2] = test system: CD1a-restricted T cell lines (J.RT-3/CD8-2 cells); type: cell-based; settings: FIG. 7, comparison between homologs
[3] = test system: CD1a-restricted T cells; assay: CD1a-restricted T cell activation assay (CD8-2 T cell line); type: cell-based
[4] = test system: CD1b transfectants; type: cell-based; settings: test for mitogen effects
[5] = test system: polyclonal T cells; assay: Activation of polyclonal T cells; type: cell-based; settings: test for mitogen effects
[6] = test system: CD1c transfectants; type: cell-based; settings: test for mitogen effects
[7] = test system: J.RT-3 T lymphoblastoid cells / CD1a; type: cell-based

Molecule | form detected (iron-bound or unbound) [1] | T cell response (ability to activate T cells) [2] | CD1a-restricted T cell response (recognition by T cells) [3] | activation with CD1b transfectants [4] | activation of polyclonal T cells [5] | activation with CD1c transfectants [6] | calcium flux (activation) ([7]; […], Fura Red and Fluo-4, flow cytometry) | activation (calcium flux) in control settings ([7]; antigen, TCR or CD1a omitted, or cells not subjected to centrifugation (spin))
mycobactin [reference compound] | iron-bound form | not recognized | did not stimulate |  |  |  |  | 
CCCCCCCCCCCCCCCCCC(=O)NCCCCC(NC(=O)C1(C)COC(c2ccccc2O)=N1)C(=O)OC(C)CC(=O)NC1CCCCNC1=O (stereo not drawn) [DDM812] |  | weaker ability to activate T cells |  |  |  |  |  | 
CCCCCCCCCCCCCCC/C=C\C(=O)NCCCCC(NC(=O)C1(C)COC(c2ccccc2O)=N1)C(=O)OC(C)CC(=O)NC1CCCCNC1=O (stereo not drawn) [DDM838, didehydroxymycobactin] | unbound form | most potent |  | not above to activate | not above to activate | not above to activate | Strong calcium flux | No activation
CCCCCCCCCCCCCCCCCCCC(=O)NCCCCC(NC(=O)C1(C)COC(c2ccccc2O)=N1)C(=O)OC(C)CC(=O)NC1CCCCNC1=O (stereo not drawn) [DDM840] |  | weaker ability to activate T cells |  |  |  |  |  | 
